Data on one compound can be found in ChEMBL document CHEMBL3259734, “Cepharanthine inhibited HIV-1 cell-cell transmission and cell-free infection via modification of cell membrane fluidity” (Bioorg Med Chem Lett, 2014).

Values after ≈ are worked out from the molar mass of the structure shown. Active and inactive are the calls of the source. The rule behind the calls is not given here.

One data set concerns HEK-293T. Kind of data set: Suppression of syncytial formation in HIV1 envelope Env-GFP expressing HEK293T cells co-cultured with 1 hr at up to 5 ug/ml compound treated human TZM-bl cells by fluorescent microscopy. Format: cell-based. As to conditions: Human immunodeficiency virus 1.
Data set [1] in a line: Cytotoxicity against human MOLT4 cells assessed as cell growth inhibition after 24 hrs by MTT assay. As to conditions: MOLT-4 cells. Format: cell-based. Background: Formazan colour is commonly taken as a measure of viable cells.
Data set [2] in a line: Cytotoxicity against human TZM-bl cells assessed as cell growth inhibition at 1 to 10 ug/ml washout after 1 hr measured at 24 hrs by MTT assay. It is filed as cell-based.
The subject of data set [3] is Human immunodeficiency virus 1. Kind of data set: Antiviral activity against HIV1 NL4.3 infected in human PHA-blast cells from PBMC assessed as reduction in viral production measured as p24 protein expression cells pretreated for 1 hr with compound at 1 to 5 ug/ml and washed 1 hr after infection measured at day 4 post infection by flow cytometry. Format: functional, organism-based. Background: In flow cytometry, cells or beads pass a laser one at a time.

For data set [4], the system named is MOLT-4. Put plainly: Inhibition of HIV1 envelope Env-dependent cell fusion in JurkatHXBc2 cells expressing Env co-cultured with 1 hr at compound treated PKH67-labelled human MOLT4 cells at 1:1 ratio for 24 hrs by fluorescent microscopy. As to conditions: Human immunodeficiency virus 1. Format: cell-based.
The test system of data set [5] is MOLT-4. Kind of data set: Reduction in membrane fluidity in human MOLT4 cells assessed as fluorescence polarization of DPH by spectrophotofluorometry. Format: functional, cell-based.
The next data set deals with PBMC. Put plainly: Cytotoxicity against human PHA-blast cells from PBMC assessed as cell growth inhibition at 1 to 10 ug/ml washout after 1 hr measured at 24 hrs by MTT assay. Format: cell-based.
Data set [6] has as its system MOLT-4. Kind of data set: Cytotoxicity against human MOLT4 cells assessed as cell growth inhibition at 1 to 10 ug/ml washout after 1 hr measured at 24 hrs by MTT assay. It is filed as cell-based.
The test system of data set [7] is Human immunodeficiency virus 1. Kind of data set: Antiviral activity against HIV1 NL4.3 infected in human PHA-blast cells from PBMC assessed as reduction in viral production measured as p24 protein expression cells pretreated for 1 hr with compound at 1 to 5 ug/ml and washed 1 hr after infection measured at day 4 post infection by ELISA. Format: functional, organism-based. For orientation: An ELISA detects its analyte on a solid surface through an enzyme-linked reagent.

Data set [8] has as its system MOLT-4. Put plainly: Cytotoxicity against human MOLT4 cells assessed as cell growth inhibition up to 20 ug/ml washout after 1 hr measured at 24 hrs by MTT assay. Format: cell-based. The settings on record: molt-4, 1 h.
Data set [9] is described as follows: Cytotoxicity against human PHA-blast cells from CBMC assessed as cell growth inhibition at 1 to 10 ug/ml washout after 1 hr measured at 24 hrs by MTT assay. Format: cell-based.
The test system of data set [10] is MOLT-4. Kind of data set: Inhibition of HIV1 envelope Env-dependent cell fusion in JurkatHXBc2 cells expressing Env co-cultured with 1 hr at compound treated PKH67-labelled human MOLT4 cells at 1:1 ratio for 24 hrs by flow cytometry. The settings on record: Human immunodeficiency virus 1. It is filed as cell-based.

Take `COc1ccc2cc1Oc1ccc(cc1)C[C@H]1c3c(cc4c(c3Oc3cc5c(cc3OC)CCN(C)[C@@H]5C2)OCO4)CCN1C` [CEPHARANTHINE]: the outcome in the data set with HEK-293T was Active. Moreover, in [1], the CC50 at 24 h came to 10 µg/mL (≈ 16.5 µM). In addition, the Activity result is “Non-toxic” in data set [2]; “Dose-dependent effect” in the data set with MOLT-4 [5]; “Non-toxic” in the data set on PBMC; “Non-toxic” in the data set on MOLT-4 [6]; “Non-toxic” with MOLT-4 [8]; “Non-toxic” in [9]. Further, the inhibition entry in data set [3] and in data set [7] was “Active” in each case. For the same compound, the inhibition result in the data set with MOLT-4 [4] and in the data set with MOLT-4 [10] was “Dose-dependent effect” each time.

By CC50 is commonly meant the concentration at which the toxic effect on the cells reaches its halfway point.
